Measured values as given in PubChem BioAssay AID248 (DTP/NCI, 2004).
Inconclusive results and toxic doses are left out. Cut-off read from the data, not from the text of the source: active = T/C of 150% or more; inactive = T/C below 125%.

Tested on: L1210 leukemia ip in BDF1 mice, survival T/C
Assay: NCI In Vivo Anticancer Drug Screen. Data for tumor model L1210 Leukemia (intraperitoneal) in B6D2F1 (BDF1) mice
Settings: endpoint: mean survival time, higher = longer survival
Method in brief: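 Transplanted-tumor mice were given test agent; controls received vehicle only. Survival readings from the two groups were divided (treated over control).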

[1] = dose: 100.0 mg/kg/injection, schedule: Q01DX001 (ip), vehicle: saline
[2] = dose: 200.0 mg/kg/injection, schedule: Q01DX001 (ip), vehicle: saline
[3] = dose: 400.0 mg/kg/injection, schedule: Q01DX001 (ip), vehicle: saline
[4] = dose: 100.0 mg/kg/injection, schedule: Q04DX003 (ip), vehicle: saline with Tween-80
[5] = dose: 200.0 mg/kg/injection, schedule: Q04DX003 (ip), vehicle: saline with Tween-80
[6] = dose: 400.0 mg/kg/injection, schedule: Q04DX003 (ip), vehicle: saline with Tween-80
[7] = dose: 25.0 mg/kg/injection, schedule: Q04DX002 (ip), vehicle: Klucel (hydroxypropylcellulose) (HPC)
[8] = dose: 50.0 mg/kg/injection, schedule: Q04DX002 (ip), vehicle: Klucel (hydroxypropylcellulose) (HPC)

Measured: T/C

Cc1cc(C)c(C(=O)O)c(O)c1
inactive: dose: 200.0 mg/kg/injection, schedule: Q01DX001 (ip), vehicle: carboxymethylcellulose (CMC) 93 % of control

C=C(NC(C)=O)C(=O)OC
inactive: dose: 75.0 mg/kg/injection, schedule: Q04DX003 (ip), vehicle: saline 102 % of control | dose: 150.0 mg/kg/injection, schedule: Q04DX003 (ip), vehicle: saline 100 % of control | dose: 300.0 mg/kg/injection, schedule: Q04DX003 (ip), vehicle: saline 97 % of control

Brc1ccc(SCN(CSc2ccc(Br)cc2)Cc2ccccc2)cc1
inactive: [1] 93 % of control | [2] 87 % of control | [3] 93 % of control

COc1ccc(NC(=S)NNC(=S)NNc2ccccc2)cc1
inactive: dose: 100.0 mg/kg/injection, schedule: Q01DX009 (ip), vehicle: Klucel (hydroxypropylcellulose) (HPC) 90 % of control | dose: 100.0 mg/kg/injection, schedule: Q04DX003 (ip), vehicle: Klucel (hydroxypropylcellulose) (HPC) 93 % of control | dose: 200.0 mg/kg/injection, schedule: Q01DX009 (ip), vehicle: Klucel (hydroxypropylcellulose) (HPC) 89 % of control | dose: 200.0 mg/kg/injection, schedule: Q04DX003 (ip), vehicle: Klucel (hydroxypropylcellulose) (HPC) 92 % of control | dose: 400.0 mg/kg/injection, schedule: Q04DX003 (ip), vehicle: Klucel (hydroxypropylcellulose) (HPC) 86 % of control

CC(C)c1nc(-c2ccccc2)c(-c2ccccc2)[nH]1
inactive: [4] 93 % of control | [5] 98 % of control | [6] 93 % of control

O=c1[nH]cc(CCOCc2ccccc2)c(=O)[nH]1
inactive: [1] 103 % of control | [2] 94 % of control | [3] 103 % of control

COc1cc(C=Nc2ccc(Cl)cc2)ccc1O
inactive: dose: 100.0 mg/kg/injection, schedule: Q01DX009 (ip), vehicle: saline with Tween-80 97 % of control | [4] 120 % of control | dose: 200.0 mg/kg/injection, schedule: Q01DX009 (ip), vehicle: saline with Tween-80 94 % of control | [5] 96 % of control | dose: 400.0 mg/kg/injection, schedule: Q01DX009 (ip), vehicle: saline with Tween-80 101 % of control | [6] 103 % of control

CC1CC(C)(C)NCCNC(C)CC(C)(C)NCCN1 (stereo not given)
inactive: dose: 12.5 mg/kg/injection, schedule: Q04DX002 (ip), vehicle: Klucel (hydroxypropylcellulose) (HPC) 97 % of control | [7] 94 % of control | [8] 94 % of control

CC(=O)C(Cl)C(C)=O.CC(=O)CC(C)=O.CC(=O)CC(C)=O.[Rh]
inactive: dose: 50.0 mg/kg/injection, schedule: Q01DX001 (ip), vehicle: other 108 % of control | dose: 100.0 mg/kg/injection, schedule: Q01DX001 (ip), vehicle: other 102 % of control | dose: 200.0 mg/kg/injection, schedule: Q01DX001 (ip), vehicle: other 98 % of control | dose: 400.0 mg/kg/injection, schedule: Q01DX001 (ip), vehicle: other 98 % of control

Cc1cnc2c(=O)[nH]c(N)nc2n1
inactive: [7] 97 % of control | [8] 113 % of control | dose: 100.0 mg/kg/injection, schedule: Q04DX002 (ip), vehicle: Klucel (hydroxypropylcellulose) (HPC) 100 % of control

O=S(=O)(/C=C/c1ccccc1)N1CCOCC1
inactive: dose: 100.0 mg/kg/injection, schedule: Q01DX001 (ip), vehicle: acetone 111 % of control | dose: 100.0 mg/kg/injection, schedule: Q01DX009 (ip), vehicle: acetone 90 % of control | dose: 100.0 mg/kg/injection, schedule: Q04DX003 (ip), vehicle: acetone 100 % of control | dose: 200.0 mg/kg/injection, schedule: Q01DX001 (ip), vehicle: acetone 102 % of control | dose: 200.0 mg/kg/injection, schedule: Q01DX009 (ip), vehicle: acetone 93 % of control | dose: 200.0 mg/kg/injection, schedule: Q04DX003 (ip), vehicle: acetone 105 % of control | dose: 400.0 mg/kg/injection, schedule: Q01DX001 (ip), vehicle: acetone 101 % of control | dose: 400.0 mg/kg/injection, schedule: Q01DX009 (ip), vehicle: acetone 93 % of control | dose: 400.0 mg/kg/injection, schedule: Q04DX003 (ip), vehicle: acetone 97 % of control

Cc1nc(N)nc(Nc2ccc(CCO)cc2)c1Br
inactive: dose: 100.0 mg/kg/injection, schedule: Q01DX Z (ip), vehicle: methylcellulose (MC) 103 % of control | dose: 200.0 mg/kg/injection, schedule: Q01DX Z (ip), vehicle: methylcellulose (MC) 98 % of control
